Experimental data: patent publication US4576945A, “Hexaalkylmelamine-amino-oxy compounds” (priority 1984, dated 1986)
Where a name gives a salt, the structure may show the parent alone.

Columns and labels:
human pulmonary tumors = conditions: cited from earlier work
human disease = conditions: in vivo; cited from earlier work
[1] = tested on: N.C.I. animal anti-tumor screening systems; conditions: in vivo; cited from earlier work
ovarian cancer = conditions: clinical; cited from earlier work
[2] = tested on: advanced ovarian adenocarcinoma; conditions: concurrent use with cyclophosphamide, methotrexate and 5-fluorouracil; cited from earlier work
human renal tumors = conditions: cited from earlier work
[3] = vs HMM; background statement; cited from earlier work
A-204 rhabdomysarcoma = assay: Inhibition of colony formation by human tumor cell line A-204 (rhabdomysarcoma), long-term exposure; assay type: cell-based; conditions: Homo sapiens, A204, 216 h, 9 days, read-out: Percent survival (number of colonies in test dishes to colonies in control dishes times 100)
Procedure: (§1) Cytotoxic activity of O-HMM against in vitro human tumor cells was measured as inhibition of colony formation and the results expressed as a ratio of the number of colonies in test dishes to number of control dishes, times 100 (Table 4).
(§2) Inhibition of colony formation by human tumor
(§3) ^a Percent survival as measured by the number of colonies in test

A-549 lung carcinoma = assay: Inhibition of colony formation by human tumor cell line A-549 (lung carcinoma), long-term exposure; assay type: cell-based; conditions: Homo sapiens, A549, 216 h, 9 days, read-out: Percent survival (number of colonies in test dishes to colonies in control dishes times 100)
Procedure: as §1, §2, §3

A-498 renal carcinoma = assay: Inhibition of colony formation by human tumor cell line A-498 (renal carcinoma), long-term exposure; assay type: cell-based; conditions: Homo sapiens, A498, 216 h, 9 days, read-out: Percent survival (number of colonies in test dishes to colonies in control dishes times 100)
Procedure: as §1, §2, §3

A-101D melanoma = assay: Inhibition of colony formation by human tumor cell line A-101D (melanoma), long-term exposure; assay type: cell-based; conditions: Homo sapiens, A101D, 216 h, 9 days, read-out: Percent survival (number of colonies in test dishes to colonies in control dishes times 100)
Procedure: as §1, §2, §3

[4] = 150 ug/ml, solubility may be limiting
[5] = 175 ug/ml, solubility may be limiting
[6] = 225 ug/ml, solubility may be limiting

For `CN(C)c1nc(N(C)C)nc(N(C)C)n1` [HMM, hexamethylmelamine], the “activity against human pulmonary tumors in mice” value (human pulmonary tumors) is listed as “active”, the “activity against human disease” value (human disease) is listed as “demonstrated activity against human disease” and the “activity in most N.C.I. animal anti-tumor screening systems” value [1] is listed as “no demonstrated activity”. The “activity against ovarian cancer” value (ovarian cancer) was “significant activity against ovarian cancer”, the “effectiveness against advanced ovarian adenocarcinoma” value [2] was “effective against advanced ovarian adenocarcinoma” and the “activity against human renal tumors in mice” value (human renal tumors) was “active”.
For `CNc1nc(N(C)C)nc(N(C)C)n1` [pentamethylmelamine], the “solubility compared with HMM” value [3] is listed as “more soluble”.
`CN(C)c1nc(N(C)C)nc(N(C)C)n1` [HMM.HCl, reference compound] showed a viability at 20 µg/mL (A-204 rhabdomysarcoma; 20 ug/ml) of 104 ± 12%, a viability at 25 µg/mL (A-204 rhabdomysarcoma; 25 ug/ml) of 85 ± 8% and a viability at 50 µg/mL (A-204 rhabdomysarcoma; 50 ug/ml) of 78 ± 15%. The viability at 75 µg/mL (A-204 rhabdomysarcoma; 75 ug/ml) was 62 ± 24%, the viability at 100 µg/mL (A-204 rhabdomysarcoma; 100 ug/ml) was 55 ± 27% and the viability at 150 µg/mL (A-204 rhabdomysarcoma; [4]) was 35 ± 29%. The viability at 175 µg/mL (A-204 rhabdomysarcoma; [5]) was 38 ± 26%, the viability at 200 µg/mL (A-204 rhabdomysarcoma; 200 ug/ml) was 38 ± 21% and the viability at 225 µg/mL (A-204 rhabdomysarcoma; [6]) was 40 ± 28%. It also gave a viability at 10 µg/mL (A-549 lung carcinoma; 10 ug/ml) of 95 ± 5%, a viability at 20 µg/mL (A-549 lung carcinoma; 20 ug/ml) of 93 ± 4% and a viability at 25 µg/mL (A-549 lung carcinoma; 25 ug/ml) of 91 ± 12%. For the same compound, the viability at 50 µg/mL (A-549 lung carcinoma; 50 ug/ml) was 95 ± 8%, the viability at 75 µg/mL (A-549 lung carcinoma; 75 ug/ml) was 87 ± 11% and the viability at 100 µg/mL (A-549 lung carcinoma; 100 ug/ml) was 86 ± 9%. For the same compound, the viability at 150 µg/mL (A-549 lung carcinoma; [4]) was 74 ± 17%, the viability at 175 µg/mL (A-549 lung carcinoma; [5]) was 59 ± 23% and the viability at 200 µg/mL (A-549 lung carcinoma; 200 ug/ml) was 61 ± 19%. The viability at 20 µg/mL (A-498 renal carcinoma; 20 ug/ml) was 97 ± 6%, the viability at 25 µg/mL (A-498 renal carcinoma; 25 ug/ml) was 90 ± 12% and the viability at 50 µg/mL (A-498 renal carcinoma; 50 ug/ml) was 75 ± 8%. The viability at 75 µg/mL (A-498 renal carcinoma; 75 ug/ml) was 61 ± 12%, the viability at 100 µg/mL (A-498 renal carcinoma; 100 ug/ml) was 50 ± 12% and the viability at 150 µg/mL (A-498 renal carcinoma; [4]) was 42 ± 18%. For the same compound, the viability at 175 µg/mL (A-498 renal carcinoma; [5]) was 43 ± 25%, the viability at 200 µg/mL (A-498 renal carcinoma; 200 ug/ml) was 42 ± 19% and the viability at 225 µg/mL (A-498 renal carcinoma; [6]) was 41 ± 8%. It also gave a viability at 20 µg/mL (A-101D melanoma; 20 ug/ml) of 101 ± 4%, a viability at 25 µg/mL (A-101D melanoma; 25 ug/ml) of 98 ± 11% and a viability at 50 µg/mL (A-101D melanoma; 50 ug/ml) of 92 ± 13%. The viability at 75 µg/mL (A-101D melanoma; 75 ug/ml) was 73 ± 5%, the viability at 100 µg/mL (A-101D melanoma; 100 ug/ml) was 53 ± 11% and the viability at 150 µg/mL (A-101D melanoma; [4]) was 37 ± 8%. The viability at 175 µg/mL (A-101D melanoma; [5]) was 38 ± 9%, the viability at 200 µg/mL (A-101D melanoma; 200 ug/ml) was 33 ± 8% and the viability at 225 µg/mL (A-101D melanoma; [6]) was 29 ± 6%.
